Data taken from US20190255073A1, “ESTERS OF 3-POLYAMINE DERIVATIVES OF BILE ACIDS FOR THE TREATMENT OF INFECTIONS” (VIRBAC, priority 2016, published 2019).
In brackets after ≈: the same amount, converted by molar mass.

Tests used:
E. coli ATCC28922 = assay: MIC determination by microplate dilution, E. coli human strain; assay type: cell-based, Escherichia coli; settings: Escherichia coli, ATCC28922, Gram-negative, Mueller-Hinton medium, 24 h, 37° C.
Procedure: (§1) 1) Preparation of the Preculture
(§2) A negative control (2 mL of sterile culture medium)
(§3) A positive control (1940 μL of culture medium+40 μL of DMSO+20 μL of bacterial suspension) from a thawed biological strain (the biological strains are stored at −80° C. in glycerol).
(§4) The tubes were incubated at 37° C. for 24 hours at 100 rpm.
(§5) The microorganisms were handled under a type L2 laboratory fume cupboard and, before any handling, a UV cycle was programmed and only sterile material was used. […] The chemical compounds to be tested were prepared in a DMSO/methanol mixture (50/50) at a concentration of 5 mg/mL.
(§6) 2) Preparation of the Microplate for the Determination of the Minimum Inhibitory Concentration (MIC)
(§7) After 24 hours of incubation, a measurement of the optical density was taken using a spectrophotometer at 600 nm, collecting 100 μL of the bacterial suspension diluted in 900 μL of the sterile culture medium. This test required the use of a 96-well plate and the required volume of the microbial suspension to be seeded was calculated for an OD corresponding to a value equal to 0.01 in each well. In this plate, the first line corresponded to the negative control (195 μL of sterile culture medium in each well), the second line to the positive control (seeded culture medium supplemented with 2% of DMSO), the third line was loaded twice with bacterial suspension, 8 μL of test product were placed in each well. Thereafter, a 0.5 cascade dilution was performed from this line.
(§8) The first column served as inhibition control. A sterile filter was then placed on the microplate, allowing the passage of gases but not of contaminants. The microplate was incubated at 37° C. under a humid atmosphere for 24 hours.
(§9) NB: The medium used is Mueller-Hinton (MH) medium for bacteria. All the tests were performed in duplicate.
(§10) 4) Reading of the Results
(§11) After incubation, the filter was replaced with a transparent film, and an OD reading was then taken in an iEMS plate spectrophotometer at 620 nm. Calculation of the minimum inhibitory concentration (MIC) was performed.

E. faecalis ATCC29212 = assay: MIC determination by microplate dilution, E. faecalis human strain; assay type: cell-based, Enterococcus faecalis; settings: Enterococcus faecalis, ATCC29212, Gram-positive, Mueller-Hinton medium, 24 h, 37° C.
Procedure: as §1, §2, §3, §4, §5, §6, §7, §8, §9, §10, §11

P. aeruginosa (1051575) [1] = assay: Potentiation of the doxycycline activity at 2 μg/mL; assay type: cell-based, Pseudomonas aeruginosa; settings: in combination with doxycycline 2 μg/mL; 24 h, 37°
P. aeruginosa (1051575) [2] = assay: MIC determination by microplate dilution, P. aeruginosa animal strain; assay type: cell-based, Pseudomonas aeruginosa; settings: Pseudomonas aeruginosa, Gram-negative, Mueller-Hinton medium, 24 h, 37° C.
Procedure: as §1, §2, §3, §4, §5, §6, §7, §8, §9, §10, §11

CHO-K1 cells = assay: WST1 cytotoxicity test on CHO-K1 cells; assay type: cell-based, Chinese hamster; settings: Cricetulus griseus, CHO-K1, 24 h, read-out: IC50 (μg/mL) CHO
Procedure: Test WST1 was used to measure the cytotoxic activity of the products. This is a colorimetric test which makes it possible to measure the viability and the degree of cell proliferation. It is based on cleavage of the colorless tetrazolium salts WST-1 (4-[3-(4-iodophenyl)-2-(4-nitrophenyl)-2H-5-tetrazolio]-1,3-benzene disulfonate) with mitochondrial dehydrogenases to the yellow-colored formazan derivative, which may be quantified by spectrophotometry at 420-480 nm.
The WST1 test was performed on Chinese hamster ovary cells. The CHO-K1 cells (ATCC, USA) are kept in culture on McCoy's 5A medium supplemented with 10% fetal calf serum, 2 mM of L-glutamine and a mixture of penicillin-streptomycin (100 U/ml: 10 μg/mL). The culture is incubated at 37° C. under an atmosphere enriched in CO2 (5%), and subcultured every two days.
The cells are transferred into 96-well plates (25 000 cells/mL) in whole McCoy's 5A medium, and maintained for 24 hours at 37° C. under a humid atmosphere enriched in CO2 (5%). Increasing concentrations of test products are added to the wells in double tests and 8 growth controls containing the cells in the medium alone are included in each series of tests. After 24 hours at 37° C. (5% CO2), the culture medium is removed, the cells are rinsed in phosphate buffer (PBS) and 50 μL of PBS containing 10% of reagent WST1 are added to each well. After 20 minutes of incubation at 37° C., the results are read by spectrophotometry at 450 nm.
The results are expressed in dose-response relationships, modeled by nonlinear regression analysis using the TableCurve software. The 50% inhibitory concentration (IC50) represents the concentration of product that is capable of reducing the cell viability by 50%.

S. aureus (340) = assay: MIC determination by microplate dilution, S. aureus animal strain; assay type: cell-based, Staphylococcus aureus; settings: Staphylococcus aureus, Gram-positive, Mueller-Hinton medium, 24 h, 37° C.
Procedure: as §1, §2, §3, §4, §5, §6, §7, §8, §9, §10, §11

S. intermedius (1051997) = assay: MIC determination by microplate dilution, S. intermedius animal strain; assay type: cell-based, Staphylococcus intermedius; settings: Staphylococcus intermedius, Gram-positive, Mueller-Hinton medium, 24 h, 37° C.
Procedure: as §1, §2, §3, §4, §5, §6, §7, §8, §9, §10, §11

S. aureus ATCC25923 = assay: MIC determination by microplate dilution, S. aureus human strain; assay type: cell-based, Staphylococcus aureus; settings: Staphylococcus aureus, ATCC25923, Gram-positive, Mueller-Hinton medium, 24 h, 37° C.
Procedure: as §1, §2, §3, §4, §5, §6, §7, §8, §9, §10, §11

P. aeruginosa ATCC27853 = assay: MIC determination by microplate dilution, P. aeruginosa human strain; assay type: cell-based, Pseudomonas aeruginosa; settings: Pseudomonas aeruginosa, ATCC27853, Gram-negative, Mueller-Hinton medium, 24 h, 37° C.
Procedure: as §1, §2, §3, §4, §5, §6, §7, §8, §9, §10, §11

E. coli (1956) = assay: MIC determination by microplate dilution, E. coli animal strain; assay type: cell-based, Escherichia coli; settings: Escherichia coli, Gram-negative, Mueller-Hinton medium, 24 h, 37° C.
Procedure: as §1, §2, §3, §4, §5, §6, §7, §8, §9, §10, §11

Row | SMILES | MIC (E. coli ATCC28922) [µg/mL] | MIC (E. faecalis ATCC29212) [µg/mL] | MIC - P. aeruginosa (1051575): content of compound of formula (I) to restore the doxycycline activity (at 2 μg/mL) (P. aeruginosa (1051575) [1]) [µg/mL] | MIC (P. aeruginosa (1051575) [2]) [µg/mL] | IC50 (CHO-K1 cells) [µg/mL] | MIC (S. aureus (340)) [µg/mL] | MIC (S. intermedius (1051997)) [µg/mL] | MIC (S. aureus ATCC25923) [µg/mL] | MIC (P. aeruginosa ATCC27853) [µg/mL] | MIC (E. coli (1956)) [µg/mL]
1 | COC(=O)CC[C@@H](C)[C@H]1CCC2C3CCC4C[C@@H](NCCCNCCCN)CC[C@]4(C)C3C[C@H](O)[C@@]21C (stereo partly drawn) [(4), methyl 3β-norspermidinodeoxycholate] | 3 (≈ 5.77 µM) | 3 (≈ 5.77 µM) | 3 | 3 (≈ 5.77 µM) | 20 (≈ 38.5 µM) | 3 (≈ 5.77 µM) | 1 (≈ 1.92 µM) | 2 (≈ 3.85 µM) | 3 (≈ 5.77 µM) | –
2 | CC(C)OC(=O)CC[C@@H](C)[C@H]1CCC2C3C(C[C@H](O)[C@@]21C)[C@@]1(C)CC[C@H](NCCCNCCCN)CC1C[C@H]3O (stereo partly drawn) [(7), isopropyl 3β-norspermidinocholate] | 28 (≈ 49.7 µM) | 28 (≈ 49.7 µM) | 4 | 30 (≈ 53.2 µM) | 110 (≈ 195 µM) | – | 28 (≈ 49.7 µM) | 28 (≈ 49.7 µM) | 30 (≈ 53.2 µM) | > 50
3 | COC(=O)CC[C@@H](C)[C@H]1CCC2C3C(CC[C@@]21C)[C@@]1(C)CC[C@H](NCCCNCCCN)CC1C[C@H]3O (stereo partly drawn) [(9), methyl 3β-norspermidinochenodeoxycholate] | 26 (≈ 50 µM) | 26 (≈ 50 µM) | 3 | 26 (≈ 50 µM) | 70 (≈ 135 µM) | 7 (≈ 13.5 µM) | 7 (≈ 13.5 µM) | 13 (≈ 25 µM) | 26 (≈ 50 µM) | 26 (≈ 50 µM)
4 | COC(=O)CC[C@@H](C)[C@H]1CCC2C3C(CC[C@@]21C)[C@@]1(C)CC[C@H](NCCCNCCCN)CC1C[C@@H]3O (stereo partly drawn) [(13), methyl 3β-norspermidinoursodeoxycholate] | 55 (≈ 106 µM) | 28 (≈ 53.9 µM) | 7 | 55 (≈ 106 µM) | 70 (≈ 135 µM) | 14 (≈ 26.9 µM) | 7 (≈ 13.5 µM) | 27 (≈ 51.9 µM) | 28 (≈ 53.9 µM) | 55 (≈ 106 µM)
5 | COC(=O)CC[C@@H](C)[C@H]1CCC2C3CCC4C[C@@H](NCCNCCNCCNCCNCCN)CC[C@]4(C)C3C[C@H](O)[C@@]21C (stereo partly drawn) [(20), methyl 3β-(pentaethylenehexamine)deoxycholate] | 8 (≈ 12.9 µM) | 16 (≈ 25.8 µM) | 4 | 8 (≈ 12.9 µM) | 90 (≈ 145 µM) | 6 (≈ 9.66 µM) | 1 (≈ 1.61 µM) | 4 (≈ 6.44 µM) | 8 (≈ 12.9 µM) | 14 (≈ 22.5 µM)
6 | COC(=O)CC[C@@H](C)[C@H]1CCC2C3C(CC[C@@]21C)[C@@]1(C)CC[C@H](NCCNCCNCCNCCNCCN)CC1C[C@H]3O (stereo partly drawn) [(22), methyl 3β-(pentaethylenehexamine)chenodeoxycholate] | 31 (≈ 49.9 µM) | 8 (≈ 12.9 µM) | 4 | 31 (≈ 49.9 µM) | 60 (≈ 96.6 µM) | 4 (≈ 6.44 µM) | 2 (≈ 3.22 µM) | 16 (≈ 25.8 µM) | 31 (≈ 49.9 µM) | 8 (≈ 12.9 µM)
7 | CC(C)OC(=O)CC[C@@H](C)[C@H]1CCC2C3C(CC[C@@]21C)[C@@]1(C)CC[C@H](NCCNCCNCCNCCNCCN)CC1C[C@H]3O (stereo partly drawn) [(23), isopropyl 3β-(pentaethylenehexamine)chenodeoxycholate] | 16 (≈ 24.7 µM) | 16 (≈ 24.7 µM) | 8 | 64 (≈ 98.6 µM) | – | 16 (≈ 24.7 µM) | 8 (≈ 12.3 µM) | 16 (≈ 24.7 µM) | 64 (≈ 98.6 µM) | 32 (≈ 49.3 µM)
8 | CC(C)OC(=O)CC[C@@H](C)[C@H]1CCC2C3CCC4C[C@@H](NCCCN(C)CCCN)CC[C@]4(C)C3C[C@H](O)[C@@]21C (stereo partly drawn) [(30), isopropyl 3β-(bis(3-aminopropyl)methylamine)deoxycholate] | 28 (≈ 49.8 µM) | 56 (≈ 99.7 µM) | 7 | 56 (≈ 99.7 µM) | – | 28 (≈ 49.8 µM) | 14 (≈ 24.9 µM) | 28 (≈ 49.8 µM) | 56 (≈ 99.7 µM) | 56 (≈ 99.7 µM)
9 | CC(C)OC(=O)CC[C@@H](C)[C@H]1CCC2C3C(C[C@H](O)[C@@]21C)[C@@]1(C)CC[C@H](NCCCN(CCCN)CCCN)CC1C[C@H]3O (stereo partly drawn) [(34), isopropyl 3β-(tris(3-aminopropyl)amine)cholate] | 30 (≈ 48.3 µM) | 30 (≈ 48.3 µM) | 4 | 30 (≈ 48.3 µM) | – | 15 (≈ 24.2 µM) | 7 (≈ 11.3 µM) | 15 (≈ 24.2 µM) | 30 (≈ 48.3 µM) | 30 (≈ 48.3 µM)
10 | COC(=O)CC[C@@H](C)[C@H]1CCC2C3C(CC[C@@]21C)[C@@]1(C)CC[C@H](NCCCN(CCCN)CCCN)CC1C[C@@H]3O (stereo partly drawn) [(52), methyl 3β-(tris(3-aminopropyl)amine)ursodeoxycholate] | 30 (≈ 52 µM) | 30 (≈ 52 µM) | 7 | 30 (≈ 52 µM) | – | 14 (≈ 24.3 µM) | – | 14 (≈ 24.3 µM) | 14 (≈ 24.3 µM) | 30 (≈ 52 µM)
